From patent US20130326734A1, “COMPOSITIONS AND METHODS FOR CONTROLLING CARBON DIOXIDE- (CO2-) REGULATED STOMATAL APERTURES, WATER TRANSPIRATION AND WATER USE EFFICIENCY IN PLANTS” (THE REGENTS OF THE UNIVERSITY OF CALIFORNIA, priority 2011, published 2013)
Marks after values point to notes of the source that are not given here.

Experiments:
[1] = test system: intracellular pH of Arabidopsis guard cells; assay: Fluorescence imaging of guard cells expressing the pH sensor Pt-GFP; assay type: cell-based
Protocol: Fluorescence imaging was performed with a TE300 inverted microscope using a TE-FM Epi-Fluorescence attachment (Nikon) as previously described (Allen et al, 2000). Fluorescence images at excitation wavelengths of 470 nm and 440 nm were taken every 2 s using light from a 75-Watt xenon short arc lamp (Osram, Germany). […] neutral density filters were used to reduce bleaching of fluorescent reporter. Metafluor software (MDS, Inc.) was used to control filter wheels, shutter and COOLSNAP™ (CoolSNAP) CCD camera from Photomerics when recording and also processing raw data. The fluorescence ratio F470/F440 of Pt-GFP was analyzed as a detection of pH shifts (Schulte et al, 2006). […]
For recording intracellular Pt-GFP fluorescence in response to changes in extracellular pH incubation buffers, the pH of incubation buffers containing 10 mM MES, 10 mM KCl and 50 μM CaCl2 at 5.0 and 7.5 was adjusted by adding Tris-HCl. […] For recording intracellular Pt-GFP fluorescence in response to constant extracellular pH and added weak acid, the perfusion buffers contained 10 mM MES, 10 mM KCl and 50 μM CaCl2, pH 5.6 supplemented with the indicated concentrations of sodium butyrate. […] Background fluorescence intensities at 470 nm were measured in regions lacking guard cells and are also shown for the corresponding experiments.

[2] = test system: S-type anion channel currents in Arabidopsis guard cell protoplasts; assay: Whole-cell patch-clamp recording of S-type anion currents in guard cell protoplasts; assay type: cell-based; details: for current amplitude activated by bicarbonate at a voltage of −146 mV: 13.5 mM total bicarbonate; for HCO3− activated S-type anion current at a voltage of −146 mV: 11.5 mM [HCO3−]i and 2 mM [CO2]; for I (pA) at −146 mV: wild type Col-0 guard cells, pipette pH 7.1
Protocol: The interpulse period was 5 s. Liquid junction potentials (LJP) were determined using Clampex 10.0. No leak subtraction was applied for all current-voltage curves. Steady-state currents were the average currents during the last 500 ms of pulses. Detail contents of solutions are discussed, below (see “supplementary data”). Bicarbonate (CsHCO3) was freshly dissolved in the pipette solution before patch clamp experiments and pH was adjusted to the indicated values. The pipette solution was stored using air-tight precision glass syringes during patch clamp experiments to slow CO2 equilibration with the surrounding air and was not stored overnight. […] [HCO3^−] represents the free bicarbonate concentration; [CO2] represents the free CO2 concentration. […] To independently measure CO2 concentrations in the solutions at different pH values, an InPro 5000 CO2 sensor (Mettler Tolego 400, Mettler-Toledo Inc, USA) was used for dissolved CO2. The InPro 5000 sensor employs a gas permeable silicone membrane. The significance of differences between data sets was assessed by noncoupled double-tailed Student's t-test analysis. Values of P<0.05 were considered statistically significant.
For experiments analyzing effects of protons on S-type anion currents, the pipette solution contained 150 mM CsCl, 2 mM MgCl2, 6.7 mM EGTA, 0.6 mM CaCl2 (2 μM [Ca^2+]i), 5 mM Mg-ATP, 5 mM Tris-GTP, 1 mM Mes/Tris, pH 6.1. For experiments with pipette solution at pH 7.8, the pipette medium contained 150 mM CsCl, 2 mM MgCl2, 2 μM free [Ca^2+]i, 5 mM Mg-ATP, 5 mM Tris-GTP, 1 mM HEPES/Tris. Calcium affinities of EGTA and free Ca^2+ concentrations were calculated using the WEBMAXC tool (http://www.stanford.edu/-epatton/webmaxc/webmaxcE.htm), which considers pH, [ATP] and ionic conditions. The bath solution contained 30 mM CsCl, 2 mM MgCl2, 5 mM CaCl2 and 10 mM Mes/Tris, pH 5.6.

[3] = test system: Arabidopsis intact leaves; assay: Stomatal conductance measurements of intact leaves in response to imposed [CO2] (Li-6400 gas exchange analyzer); assay type: in vivo
Protocol: Stomatal conductance measurements of 5-week-old plants in response to the imposed [CO2] at a light (PAR) fluence rate of 150 μmol m^−2s^−1 were conducted with a Li-6400 gas exchange analyzer with a fluorometer chamber (Li-Cor Inc.) as described-previously (Hu at al, 2010). To reduce the wilting of abi1-1 and abi1-2 mutant leaves, all plants ware analyzed with a humidifier that humidified the air surrounding plants to ˜75-85%. Relative stomatal conductance values of intact leaves were calculated by normalization relative to 365 or 400 ppm just before transition to 800 ppm [CO2]. Data shown are mean±s.e. of at least 3 leaves per genotype in the same experimental set.

[4] = test system: voltage-dependent anion channels (R-type anion channels) in Arabidopsis hypocotyl cells; details: Arabidopsis hypocotyl cells (Frachisse et al, 1999); cited from earlier work

CCCC(=O)[O-].[Na+] [sodium butyrate]
ratiometric fluorescence (F470/F440) of Pt-GFP, intracellular pH ([1]; intact epidermes perfused with sodium butyrate-containing MES buffers, pH 5.6): clear shifts

O=C=O [CO2, carbon dioxide]
guard cell intracellular pH fluorescence (Pt-GFP) ([1]; CO2 bubbled in extracellular perfusion buffers repeatedly shifted from 0 ppm to 800 ppm): no clear shifts | activation of S-type anion channel currents ([2]; wild type, 2 mM intracellular free [CO2] (1.1 mM free [HCO3−]i) at pH 6.1, P>0.05): not activated | initial rate of stomatal conductance change ([3]; abi1-1 mutant plants, [CO2] shifted from 400 to 800 ppm for 30 min, ~75-85% humidity): -0.035 ± 0.007 mmol H2O m^-2 s^-1 min^-1 | initial rate of stomatal conductance change ([3]; abi2-1 mutant plants, [CO2] shifted from 400 to 800 ppm for 30 min, ~75-85% humidity): -0.037 ± 0.007 mmol H2O m^-2 s^-1 min^-1 | initial rate of stomatal conductance change ([3]; pyr1;pyl1;pyl2;pyl4 mutant plants, [CO2] shifted from 365 to 800 ppm for 30 min): −0.035±0.008 mmol H2O m^−2 s^−1 min^−1 | initial rate of stomatal conductance change ([3]; pyr1;pyl1;pyl2;pyl4 mutant plants, first 30 min upon shifting [CO2] from 800 to 100 ppm): 0.022±0.002 mmol H2O m^−2 s^−1 min^−1 | initial rate of stomatal conductance change ([3]; wild type plants, [CO2] shifted from 365 to 800 ppm for 30 min): −0.038±0.014 mmol H2O m^−2 s^−1 min^−1 | initial rate of stomatal conductance change ([3]; wild type plants, [CO2] shifted from 400 to 800 ppm for 30 min, ~75-85% humidity): −0.041±0.01 mmol H2O m^−2 s^−1 min^−1 | initial rate of stomatal conductance change ([3]; wild type plants, first 30 min upon shifting [CO2] from 800 to 100 ppm): 0.042±0.013 mmol H2O m^−2 s^−1 min^−1

O=C(O)O [bicarbonate]
current amplitude activated by bicarbonate at a voltage of −146 mV ([2]; Col-0 wild type guard cells, 2 μM [Ca2+]i, n=10): −59±5.9 pA | whole-cell current at a voltage of −144 mV ([2]; Col-0 wild type, extracellular bath perfusion with 13.5 mM total bicarbonate (11.5 mM free HCO3−, 2 mM CO2) pH 7.1, n=6): −17±5 pA | HCO3− activated S-type anion current at a voltage of −146 mV ([2]; Ler wild type guard cells, 2 μM [Ca2+]i, n=7): −51±4.3 pA | activation of anion currents ([2]; ca1;ca4 double mutant guard cells, 13.5 mM total bicarbonate (11.5 mM free [HCO3−]i/2 mM free [CO2]) pH 7.1, 2 μM [Ca2+]i): activated anion currents | activation of S-type anion currents ([2]; ht1-2 guard cells, 5.75 mM free [HCO3−]i and 1 mM free [CO2] pH 7.1, 2 μM [Ca2+]i, P<0.01): significant activation | activation of S-type anion currents ([2]; ht1-2 guard cells, 5.75 mM free [HCO3−]i, [Ca2+]i buffered to 0.15 μM): no significant S-type anion current activation | reversal potential of CO2+HCO3− activated whole-cell currents ([2]; imposed chloride equilibrium potential +31.1 mV, n=8): +24.0±3.6 mV | HCO3− activated S-type anion current at a voltage of −146 mV ([2]; ost1-2 mutant guard cells, 2 μM [Ca2+]i, n=6): −25.2±1.9 pA | current amplitude activated by bicarbonate at a voltage of −146 mV ([2]; ost1-3 mutant guard cells, 2 μM [Ca2+]i, n=6): −24±1.9 pA | anion currents in the presence of bicarbonate ([2]; slac1-1 mutant guard cell protoplasts, 11.5 mM free [HCO3−]i and 2 mM [CO2], similar to control, P>0.05): only small anion currents | I (pA) at −146 mV ([2]; [Ca^2+]i 0.15 μM, free [HCO3]i 11.5 mM): −22.3 ± 2.3^c pA | I (pA) at −146 mV ([2]; [Ca^2+]i 0.6 μM, free [HCO3]i 11.5 mM): −27.3 ± 4.5^f pA | I (pA) at −146 mV ([2]; [Ca^2+]i 2 μM, free [HCO3]i 5.75 mM): −21.8 ± 3.2^d pA | I (pA) at −146 mV ([2]; [Ca^2+]i 2 μM, free [HCO3]i 11.5 mM): −58.7 ± 5.9^e pA | activation of S-type anion currents ([2]; wild type, 13.04 mM free [HCO3−] with 0.46 mM free [CO2] at pH 7.8, 2 μM [Ca2+]i, P<0.05): S-type anion currents were activated | reversal potential of whole-cell S-type anion currents ([2]; wild type, 50 mM total bicarbonate in pipette pH 7.1 (43.4 mM free [HCO3−]i, 6.6 mM free [CO2]), n=4): +26.0±0.9 mV | relative permeability ratio of PHCO3−/PCi− ([2]; wild type, 50 mM total bicarbonate, estimated using the Goldman equation): 0.06±0.01 | activation of S-type anion currents by extracellular application ([2]; wild type, bath perfused 2 min with 11.5 mM free [HCO3−] and 2 mM [CO2] at pH 7.1): No large S-type anion currents were activated | relative permeability ratio PHCO3−PCO− [4]: 0.8
